≈ marks a conversion by molar mass, not a printed value.
What was measured:
Escherichia coli [1] = test: Antibacterial activity against Escherichia coli DH10B expressing SCO1 by agar dilution technique; type: functional
Escherichia coli [2] = test: Antibacterial activity against Escherichia coli DH10B by agar dilution technique; type: functional
Acinetobacter johnsonii [3] = test: Antibacterial activity against Acinetobacter johnsonii 7037 expressing SCO1 by agar dilution technique; type: functional
Acinetobacter johnsonii [4] = test: Activity of Acinetobacter johnsonii SCO1
Acinetobacter johnsonii [5] = test: Ratio of kcat to Km for Acinetobacter johnsonii SCO1
[6] = Inhibition of Acinetobacter johnsonii SCO1

SMILES | MIC (Escherichia coli [1]) | MIC (Escherichia coli [2]) | MIC (Acinetobacter johnsonii [3]) | Km (Acinetobacter johnsonii [4]) | kcat (Acinetobacter johnsonii [4]) | Ratio (Acinetobacter johnsonii [5]) | IC50 [6]
CC(C)(O/N=C(\C(=O)N[C@@H]1C(=O)N2C(C(=O)[O-])=C(C[n+]3ccccc3)CS[C@H]12)c1csc(N)n1)C(=O)O [CEFTAZIDIME] | 0.5 µg/mL (≈ 0.915 µM) | 0.06 µg/mL (≈ 0.11 µM) | > 512 µg/mL | 600 µM | 0.3 s⁻¹ | 0.5 mM⁻¹ s⁻¹ | 
O=C(O)[C@H]1/C(=C/CO)O[C@@H]2CC(=O)N21 [CLAVULANIC ACID] |  |  |  |  |  |  | 300 nM
CC1(C)S[C@@H]2[C@H](NC(=O)Cc3ccccc3)C(=O)N2[C@H]1C(=O)O |  |  |  | 20 µM | 150 s⁻¹ | 7500 mM⁻¹ s⁻¹ | 
CC1(C)S[C@@H]2[C@H](NC(=O)[C@H](C(=O)O)c3ccsc3)C(=O)N2[C@H]1C(=O)O [TICARCILLIN] | > 512 µg/mL | 2 µg/mL (≈ 5.2 µM) | > 512 µg/mL | 80 µM | 35 s⁻¹ | 450 mM⁻¹ s⁻¹ | 
C[C@H]1[C@H](NC(=O)/C(=N\OC(C)(C)C(=O)O)c2csc(N)n2)C(=O)N1S(=O)(=O)O [AZTREONAM] |  |  | > 512 µg/mL |  | < 0.01 s⁻¹ |  | 
CO/N=C(\C(=O)N[C@@H]1C(=O)N2C(C(=O)O)=C(COC(C)=O)CS[C@H]12)c1csc(N)n1 [CEFOTAXIME] | 0.25 µg/mL (≈ 0.549 µM) | 0.12 µg/mL (≈ 0.263 µM) | > 512 µg/mL | 2000 µM | 0.1 s⁻¹ | 0.05 mM⁻¹ s⁻¹ | 
CO/N=C(\C(=O)N[C@@H]1C(=O)N2C(C(=O)O)=C(COC(N)=O)CS[C@H]12)c1ccco1 [CEFUROXIME] | 4 µg/mL (≈ 9.43 µM) | 2 µg/mL (≈ 4.71 µM) | > 512 µg/mL | 650 µM | 0.05 s⁻¹ | 0.08 mM⁻¹ s⁻¹ | 
CCN1CCN(C(=O)N[C@@H](C(=O)N[C@@H]2C(=O)N3[C@@H]2SC(C)(C)[C@@H]3C(=O)O)c2ccccc2)C(=O)C1=O [PIPERACILLIN] | 128 µg/mL (≈ 247 µM) | 1 µg/mL (≈ 1.93 µM) | 64 µg/mL (≈ 124 µM) | 10 µM | 0.4 s⁻¹ | 40 mM⁻¹ s⁻¹ | 
C[C@]1(Cn2ccnn2)[C@H](C(=O)O)N2C(=O)C[C@H]2S1(=O)=O [TAZOBACTAM] |  |  |  |  |  |  | 1200 nM
CC1(C)S[C@@H]2[C@H](NC(=O)[C@H](N)c3ccc(O)cc3)C(=O)N2[C@H]1C(=O)O [AMOXICILLIN] | > 512 µg/mL | 2 µg/mL (≈ 5.47 µM) | > 512 µg/mL |  |  |  | 
CC1(C)S[C@@H]2[C@H](NC(=O)[C@H](N)c3ccccc3)C(=O)N2[C@H]1C(=O)O |  |  |  | 40 µM | 270 s⁻¹ | 6700 mM⁻¹ s⁻¹ | 
CO[C@@]1(NC(=O)Cc2cccs2)C(=O)N2C(C(=O)O)=C(COC(N)=O)CS[C@@H]21 [CEFOXITIN] | 4 µg/mL (≈ 9.36 µM) | 4 µg/mL (≈ 9.36 µM) | > 512 µg/mL |  | < 0.01 s⁻¹ |  | 
C[C@@H](O)[C@H]1C(=O)N2C(C(=O)O)=C(SCCNC=N)C[C@H]12 [IMIPENEM ANHYDROUS] |  |  | 0.12 µg/mL (≈ 0.401 µM) | 3800 µM | 0.03 s⁻¹ | 0.008 mM⁻¹ s⁻¹ | 
CO/N=C(\C(=O)N[C@@H]1C(=O)N2C(C(=O)[O-])=C(C[N+]3(C)CCCC3)CS[C@H]12)c1csc(N)n1 [CEFEPIME] | 0.12 µg/mL (≈ 0.25 µM) |  | > 512 µg/mL | > 2000 µM | > 1.5 s⁻¹ | 0.8 mM⁻¹ s⁻¹ | 
CC(=O)OCC1=C(C(=O)O)N2C(=O)[C@@H](NC(=O)Cc3cccs3)[C@H]2SC1 [CEPHALOTHIN] | 8 µg/mL (≈ 20.2 µM) | 2 µg/mL (≈ 5.04 µM) | > 512 µg/mL | 120 µM | 0.1 s⁻¹ | 1 mM⁻¹ s⁻¹ | 
C[C@@H](O)[C@H]1C(=O)N2C(C(=O)O)=C(S[C@@H]3CN[C@H](C(=O)N(C)C)C3)[C@H](C)[C@H]12 |  |  |  |  | < 0.01 s⁻¹ |  | 
